Reference: US8541585B2, “N-acyl cyclic amine derivative or pharmaceutically acceptable salt thereof” (Dainippon Sumitomo Pharma Co., Ltd., priority 2010, dated 2013)

How the values were obtained:
[1] = target: human D2L receptor (Homo sapiens, UniProt P14416); test: Dopamine D2L receptor binding assay ([3H]-spiperone); conditions: 10 nM test drug; [3H]-spiperone 0.5 nM; human D2L receptor-expressing CHO cell membrane; read-out: BINDING INHIBITION RATE (%) D2L 10 nM
Description: (1) Dopamine D2L Receptor Binding Assay
D2L receptor binding assay was performed in reference to a method described by Hirose et al. (Japan. J. Pharmacol., 53, 321-329, 1990). After a reaction in a total volume of 200 μL of 50 mM Tris-HCl (pH=7.6) buffer solution containing 50 μL of [^3H]-spiperone (final concentration 0.5 nM), 1 μL of test drug in DMSO, and 149 μL of human D2L receptor-expressing CHO cell membrane sample, human D2L receptor binding activity of [^3H]-spiperone was measured. The reaction solution let stand for 60 minutes at room temperature, and then it was quickly added on a glass fiber filter plate (Multiscreen FB, Millipore inc.) coated with 0.3% polyethyleneimine (PEI) and filtered under reduced pressure. The glass fiber filter was washed with 200 μL of ice-cooled 50 mM Tris-HCl (pH=7.6) twice, repeatedly filtered under reduced pressure, and then transferred to a vial containing 4 mL of Ecoscint A (National Diagnostics inc.). The residual radioactivity on the glass fiber filter was measured by a liquid scintillation counter. Nonspecific binding was measured in the presence of 10 μM of spiperone, and [^3H]-spiperone binding inhibition rate in the presence of 10 nM of test drug was determined. The larger binding inhibition rate (%) means that test drug has the higher binding affinity for human D2L receptor.

[2] = target: T1, human 5-HT2A receptor (Homo sapiens, UniProt P28223); test: Serotonin 5-HT2A receptor binding assay ([3H]-ketanserin); conditions: [3H]-ketanserin 1 nM, human 5-HT2A receptor-expressing CHO cell membrane; for inhibition at 0.001 µM: 1 nM test drug, read-out: BINDING INHIBITION RATE (%) 5HT2A 1 nM; for inhibition at 0.01 µM: 10 nM test drug, read-out: BINDING INHIBITION RATE (%) 5HT2A 10 nM
T1 construct: expressed in transfected cells; host or cells: CHO cells (membrane preparation)
T1 sequence (P28223 whole entry): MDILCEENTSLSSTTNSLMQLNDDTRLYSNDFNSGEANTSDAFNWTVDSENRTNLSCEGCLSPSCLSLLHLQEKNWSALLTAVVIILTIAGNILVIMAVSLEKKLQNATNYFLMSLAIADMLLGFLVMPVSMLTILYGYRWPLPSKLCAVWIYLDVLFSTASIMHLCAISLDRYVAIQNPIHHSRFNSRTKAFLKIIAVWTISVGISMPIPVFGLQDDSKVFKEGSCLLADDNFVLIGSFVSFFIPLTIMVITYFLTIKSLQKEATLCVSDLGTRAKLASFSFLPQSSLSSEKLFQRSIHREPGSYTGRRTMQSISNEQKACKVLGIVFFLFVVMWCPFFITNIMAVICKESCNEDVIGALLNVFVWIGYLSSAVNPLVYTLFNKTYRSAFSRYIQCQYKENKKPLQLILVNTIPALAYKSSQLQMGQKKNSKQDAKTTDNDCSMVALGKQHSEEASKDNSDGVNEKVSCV
Description: (2) Serotonin 5-HT2A Receptor Binding Assay
5-HT2A receptor binding assay was performed in reference to a method described by Hirose et al. (Japan. J. Pharmacol., 53, 321-329, 1990). After a reaction in a total volume of 200 μL of 50 mM Tris-HCl (pH=7.6) buffer solution containing 50 μL of [^3H]-ketanserin (final concentration 1 nM), 1 μL of test drug in DMSO, and 149 μL of human 5-HT2A receptor-expressing CHO cell membrane sample, human 5-HT2A receptor binding activity of [^3H]-ketanserin was measured. The reaction solution let stand for 15 minutes at 37° C., and then it was quickly added on a glass fiber filter plate (Multiscreen FB, Millipore inc.) coated with 0.05% Brij 35 and filtered under reduced pressure. The glass fiber filter was washed with 200 μL of ice-cooled 50 mM Tris-HCl (pH=7.6) twice, repeatedly filtered under reduced pressure, and then transferred to a vial containing 4 mL of Ecoscint A (National Diagnostics inc.). The residual radioactivity on the glass fiber filter was measured by a liquid scintillation counter. Nonspecific binding was measured in the presence of 10 μM of MDL-100907, and [^3H]-ketanserin binding inhibition rate in the presence of 1 nM or 10 nM of test drug was determined.

[3] = target: T2, human 5-HT6 receptor (Homo sapiens, UniProt P50406); test: Serotonin 5-HT6 receptor binding assay ([3H]-clozapine); conditions: 100 nM test drug; [3H]-clozapine 2 nM; human 5-HT6 receptor-expressing CHO cell membrane; read-out: BINDING INHIBITION RATE (%) 5HT6 100 nM
T2 construct: expressed in transfected cells; host or cells: CHO cells (membrane preparation)
T2 sequence (P50406 whole entry): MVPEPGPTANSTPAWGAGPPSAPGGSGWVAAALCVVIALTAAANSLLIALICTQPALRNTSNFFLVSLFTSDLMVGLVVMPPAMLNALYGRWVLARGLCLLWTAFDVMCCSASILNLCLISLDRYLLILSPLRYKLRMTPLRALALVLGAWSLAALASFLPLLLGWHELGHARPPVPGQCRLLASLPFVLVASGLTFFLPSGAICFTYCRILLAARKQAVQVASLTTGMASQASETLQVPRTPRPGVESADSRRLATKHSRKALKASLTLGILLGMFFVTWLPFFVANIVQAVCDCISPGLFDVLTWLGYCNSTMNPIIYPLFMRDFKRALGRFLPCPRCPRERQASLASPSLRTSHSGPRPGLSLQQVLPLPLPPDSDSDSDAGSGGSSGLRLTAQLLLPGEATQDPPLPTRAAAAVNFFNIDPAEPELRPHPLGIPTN
Description: (3) Serotonin 5-HT6 Receptor Binding Assay
After a reaction in a total volume of 200 μL of 50 mM Tris-HCl (pH=7.6), 4 mM CaCl2, and 0.5 mM EDTA buffer solution containing 50 μL of [^3H]-clozapine (final concentration 2 nM), 1 μL of test drug in DMSO, and 149 μL of human 5-HT6 receptor-expressing CHO cell membrane sample, human 5-HT6 receptor binding activity of [^3H]-clozapine was measured. The reaction solution let stand for 40 minutes at room temperature, and then it was quickly added on a glass fiber filter plate (Multiscreen FB, Millipore inc.) coated with 0.3% polyethyleneimine (PEI) and filtered under reduced pressure. The glass fiber filter was washed with 200 μL of ice-cooled 50 mM Tris-HCl (pH=7.6) twice, repeatedly filtered under reduced pressure, and then transferred to a vial containing 4 mL of Ecoscint A (National Diagnostics inc.). The residual radioactivity on the glass fiber filter was measured by a liquid scintillation counter. Nonspecific binding was measured in the presence of 10 μM of SB-258585, and [^3H]-clozapine binding inhibition rate in the presence of 100 nM of test drug was determined.

[4] = target: T3, human α1D receptor (Homo sapiens, UniProt P25100); test: Adrenaline α1D receptor binding assay ([3H]-prazosin); conditions: 100 nM test drug; [3H]-prazosin 0.6 nM; human α1D receptor-expressing CHO cell membrane; read-out: BINDING INHIBITION RATE (%) α1D 100 nM
T3 construct: expressed in transfected cells; host or cells: CHO cells (membrane preparation)
T3 sequence (P25100 1-572): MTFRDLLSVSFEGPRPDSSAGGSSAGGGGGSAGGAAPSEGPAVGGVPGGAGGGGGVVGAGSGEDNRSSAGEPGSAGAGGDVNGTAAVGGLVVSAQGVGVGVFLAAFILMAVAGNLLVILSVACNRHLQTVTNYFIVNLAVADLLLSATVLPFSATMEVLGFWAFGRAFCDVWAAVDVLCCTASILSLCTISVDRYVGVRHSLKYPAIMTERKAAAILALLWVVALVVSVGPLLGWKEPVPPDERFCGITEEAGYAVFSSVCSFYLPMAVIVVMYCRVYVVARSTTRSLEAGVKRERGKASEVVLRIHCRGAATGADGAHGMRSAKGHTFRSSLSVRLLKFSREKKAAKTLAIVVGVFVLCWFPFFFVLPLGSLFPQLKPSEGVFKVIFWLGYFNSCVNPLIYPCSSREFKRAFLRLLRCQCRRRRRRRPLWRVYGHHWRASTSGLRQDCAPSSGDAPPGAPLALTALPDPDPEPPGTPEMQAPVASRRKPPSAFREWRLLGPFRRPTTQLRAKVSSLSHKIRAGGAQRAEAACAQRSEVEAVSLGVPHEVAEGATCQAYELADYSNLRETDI
Description: (4) Adrenaline α1D Receptor Binding Assay
After a reaction in a total volume of 200 μL of 50 mM Tris-HCl (pH=7.6) buffer solution containing 50 μL of [^3H]-prazosin (final concentration 0.6 nM), 1 μL of test drug in DMSO, and 149 μL of human α1D receptor-expressing CHO cell membrane sample, human α1D receptor binding activity of [^3H]-prazosin was measured. The reaction solution let stand for 30 minutes at room temperature, and then it was quickly added on a glass fiber filter plate (Multiscreen FB, Millipore inc.) coated with 0.3% polyethyleneimine (PEI) and filtered under reduced pressure. The glass fiber filter was washed with 200 μL of ice-cooled 50 mM Tris-HCl (pH=7.6) twice, repeatedly filtered under reduced pressure, and then transferred to a vial containing 4 mL of Ecoscint A (National Diagnostics inc.). The residual radioactivity on the glass fiber filter was measured by a liquid scintillation counter. Nonspecific binding was measured in the presence of 1 μM of prazosin, and [^3H]-prazosin binding inhibition rate in the presence of 100 nM of test drug was determined.

Sequence of human D2L receptor (P14416 whole entry): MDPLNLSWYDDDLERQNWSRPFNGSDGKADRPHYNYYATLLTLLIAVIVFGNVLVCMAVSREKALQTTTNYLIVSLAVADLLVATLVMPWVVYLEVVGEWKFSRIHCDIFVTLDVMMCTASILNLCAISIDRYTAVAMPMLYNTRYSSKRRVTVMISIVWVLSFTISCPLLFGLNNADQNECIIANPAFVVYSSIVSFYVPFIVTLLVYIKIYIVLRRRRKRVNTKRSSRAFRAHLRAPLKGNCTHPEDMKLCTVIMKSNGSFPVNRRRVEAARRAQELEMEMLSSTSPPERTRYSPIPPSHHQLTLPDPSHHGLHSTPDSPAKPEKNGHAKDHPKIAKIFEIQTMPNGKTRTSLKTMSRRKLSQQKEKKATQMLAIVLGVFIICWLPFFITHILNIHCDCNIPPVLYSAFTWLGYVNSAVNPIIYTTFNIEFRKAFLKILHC

Row | Structure (SMILES) | inhibition at 0.01 µM [1] [%] | inhibition at 0.001 µM [2] [%] | inhibition at 0.01 µM [2] [%] | inhibition at 0.1 µM [3] [%] | inhibition at 0.1 µM [4] [%]
1 | COc1ccc2cc(C(=O)N3CCOC[C@H]3CCN3CCC(c4noc5cc(F)ccc45)CC3)[nH]c2c1 [Example 15] | 84 | 76 | 94 | 79 | 74
2 | O=C(/C=C/c1ccc2c(c1)OCO2)N1CCC[C@H](CN2CCC(c3c[nH]c4ccccc34)CC2)C1 [Example 34] | 75 | – | 98 | 86 | 93
3 | COc1ccc2cc(C(=O)N3C[C@H](O)C[C@H]3CCN3CCC(c4c[nH]c5ccccc45)CC3)[nH]c2c1 [Example 35] | 37 | – | 89 | 79 | 81
4 | Cc1cc2c3c(c1)cc(C(=O)N1CCC[C@H]1CCN1CCC(C(=O)c4ccc(F)cc4)CC1)n3CCC2=O [Example 46] | 58 | 48 | – | 82 | 54
5 | O=C(/C=C/c1ccc2c(c1)OCO2)N1CCC[C@@H](CN2CCC(c3noc4cc(F)ccc34)CC2)C1 [Example 16] | 97 | – | 93 | 87 | 91
6 | Cc1ccc2cc(C(=O)N3CCC[C@H]3CCN3CCN(c4nccc5ccccc45)CC3)[nH]c2c1 [Example 11] | 69 | 64 | – | 86 | 5
7 | COc1ccc2[nH]c(C(=O)N3CCC[C@H]3CCN3CCC(c4cn(-c5ccc(F)cc5)c5ccc(Cl)cc45)CC3)cc2c1 [Example 60] | 76 | – | 78 | 97 | 76
8 | CC(C)c1ccc2cc(C(=O)N3CCC[C@H]3CCN3CCC(C(=O)c4ccc(F)cc4)CC3)[nH]c2c1 [Example 161, (S)-(2-(2-(4-(4-Fluorobenzoyl)piperidin-1-yl)ethyl)pyrrolidin-1-yl)(6-isopropyl-1H-indol-2-yl)methanone] | 49 | 69 | – | 97 | 66
9 | O=C(/C=C/c1ccc2c(c1)OCO2)N1CCCC[C@H]1CCN1CCN(c2cccc3ccccc23)CC1 [Example 9] | 32 | – | 94 | 61 | 5
